Patent publication US20240342204A1, “METHOD OF TREATING VETERINARY VIRAL DISEASES” (Intervet Inc., priority 2021, published 2024)
Where two headings read alike, the source gives them in different places.

How the values were obtained:
[1] = system: cytopathic bovine viral diarrhea virus (BVDV) RNA; details: dose-dependent inhibition of BVDV RNA production; read-out: 90% effective concentration (EC90), production of cytopathic BVDV RNA; cited from earlier work
[2] = system: swine influenza virus strain A/swine/Belgium/113/2013 (H3N2); experiment: organism not typed; type: cell-based; details: MDCK, 24 h, read-out: EC50, replication of swine influenza virus reduced by half, H3N2 strain
[3] = system: Porcine rotavirus A strain of serotype G5P7; experiment: Anti-porcine rotavirus immunofluorescent assay in MA-104 cells, strain G5P7; type: cell-based; details: MA104, 72 h, read-out: EC50, replication of porcine rotavirus reduced by half, G5P7 strain
Protocol: (§1) Example 3 Anti-Porcine Rotavirus Activity of β-D-N(4)-Hydroxycytidine (NHC)
(§2) The anti-rotaviral activity of NHC against swine rotaviruses was tested in a cell culture-based assay. MA-104 (Rhesus monkey kidney tissue) cells were cultured and harvested according to standard procedures. The harvested MA-104 cell suspension was seeded onto 96-well plates (Greiner CELLSTAR® black, Sigma-Aldrich® M0562) in 200 μl/well M6B8 medium with 5% FBS at a density of 3×10^4 cells/mL. After 4 days of culturing, the monolayers were washed and the cells were infected with rotavirus A by adding 100 μl/well of 3630 TCID50/mL Porcine rotavirus A strain of serotype G5P7 (ATCC, VR-892) or strain G9P7 (MAH Worthington, USA). […] Replication inhibition of the Rotavirus A strains by NHC was quantified using a mouse-anti-Rotavirus A strain-specific monoclonal antibody (Ingenasa, #1JF10) followed by FITC-fluorochrome conjugated goat-anti-mouse antibody (Nordic) and DAPI (Sigma Aldrich) nuclear staining in an immunofluorescent assay. The extent of immunofluorescence was quantified as relative fluorescence units (RFU) at 485 nm excitation and 528 nm emission using a Cytation 5 cell imaging multimode reader and Gen5 software version 3.10 (Agilent BioTek). […]

[4] = system: feline calicivirus (FCV) field strain 255; experiment: CrFK cell based antiviral activity against Feline Calicivirus (CPE, CellTiterGlo); details: 48 h, read-out: ED50 of NHC against Feline calicivirus
Protocol: Example 2 CrFK Cell Based Antiviral Activity of NHC Against Feline Calicivirus (FCV)
Monolayers of Crandell-Rees Feline Kidney (CrFK) cells grown in 96-well plates (Greiner Cat #655090) in 100 μl/well M6B8 medium supplemented with 5% FCS and 0.15% NaHCO3 at a density of 2×10^5 cells/ml were infected with feline calicivirus (FCV) field strain 255 at multiplicities of infection of 0.01 and 0.001. NHC was added in ⅓ serial dilutions to the infected cells to yield a test concentration range of from 10 μM to 0.000508 μM and cultures were incubated for up to 48 hours at 37° C. and 5% C02. The extent of viral replication was assessed by determining the degree of FCV-induced cytopathic effect (CPE) using the CellTiterGlo® Luminescent Cell Viability Assay (Promega Cat #G7571) by adding the reagent 1:1 (v/v) to the culture plates that have been equilibrated to room temperature for 30 minutes. Plates were incubated for 10 minutes at room temperature and subsequently read for luminescence in a Biotek Cytation5. The effective concentration of NHC that reduced FCV replication by 50% (EC50) was calculated in a 4-parameter nonlinear regression model using GraphPad Prism 8.

[5] = system: swine influenza virus strain A/swine/MN/A01483170/2014 (H1N1 pdm); experiment: microbe, parasite or virus in culture; type: cell-based; details: H1N1, MDCK, in Sus scrofa, 24 h, read-out: EC50, replication of swine influenza virus reduced by half, H1N1pdm strain
[6] = system: Feline Infectious Peritonitis Virus (FIPV) strain 79-1146; experiment: CPE antiviral assay for FIPV in Crandell-Rees Feline Kidney (CrFK) cells; type: cell-based
[7] = system: bovine viral diarrhea virus (BVDV); details: BVDV virus yield; read-out: EC90, virus yield assays; cited from earlier work
[8] = system: Porcine rotavirus A strain G9P7; experiment: Anti-porcine rotavirus immunofluorescent assay in MA-104 cells, strain G9P7; type: cell-based; details: MA104, 72 h, 3 days, immunofluorescence (FIG. 3b), read-out: EC50, replication of porcine rotavirus reduced by half, G9P7 strain
Protocol: as §1, §2

[9] = system: feline infectious peritonitis (FIP) virus; details: tissue culture and experimental cat infection studies; cited from earlier work
[10] = FIPV strain 79-1146 infected CRFK cells, 96 hrs, CPE by CellTiterGlo, read-out: EC 50

## O=c1nc(NO)ccn1[C@@H]1O[C@H](CO)[C@@H](O)[C@H]1O [NHC, 1-((2R,3R,4S,5R)-3,4-dihydroxy-5-(hydroxymethyl)tetrahydrofuran-2-yl)-4-(hydroxyamino)pyrimidin-2(1H)-one]
[1]
  EC90: 5400 nM
[2]
  EC50: 1300 nM
[3]
  EC50: 2600 nM
[4]
  EC50: 3800 nM
[5]
  EC50: 5200 nM
[6]; Alphacoronavirus 1, FIPV strain 79-1146 infected CRFK cells, 96 hrs, CPE by CellTiterGlo, read-out: EC 50
  EC50: 334 to 370 nM
[6]; FIG. 1, viral induced CPE
  Antiviral dose response against FIPV infected feline kidney cells (in words): protective against viral induced CytoPathic Effect (CPE) in a dose dependent manner
[7]
  EC90: 2000 nM
[8]
  EC50: 1900 nM

## CCC(CC)COC(=O)[C@H](C)N[P@](=O)(OC[C@H]1O[C@@](C#N)(c2ccc3c(N)ncnn23)[C@H](O)[C@@H]1O)Oc1ccccc1 [Remdesivir]
[6]; Alphacoronavirus 1, CRFK, 96 h
  EC50: 735 to 970 nM

## CC(C)C[C@H](NC(=O)OCc1ccccc1)C(=O)N[C@@H](CC1CCNC1=O)C(O)S(=O)(=O)O (stereo partly shown) [GC-376]
[6]; [10]
  EC50: 1820 to 3000 nM

## N#C[C@@]1(c2ccc3c(N)ncnn23)O[C@H](CO)[C@@H](O)[C@H]1O [GS-441524]
[9]
  Inhibition of FIP virus (in words): strongly inhibit

## C[C@@]1(O)[C@H](O)[C@@H](CO)O[C@H]1n1ccc2c(N)ncnc21 [MK-0608]
[6]; [10]
  EC50: > 30000 nM
